In patent publication US20070037783A1, “Migrastatin analogs and uses thereof” (priority 2003, published 2007):
pIC50: −log10 of the molar value. Like-named read-outs stand apart in the source and are kept apart here.

Legend:
[1] = rcm bond, Grubbs-II, toluene, 111.0 °C, 0.25 h
[2] = tested on: 4T1 mouse breast tumor cells; assay: Boyden chamber cell migration assay with 4T1 tumor cells; type: cell-based; details: for pIC50: chamber cell migration, 6-8 h, average of three experiments, read-out: IC50 (4T1 tumor cells)
Method: The biological evaluation of the compounds (in terms of their ability to inhibit cell migration) was accomplished in a Boyden chamber cell migration assay. In this assay, mouse breast tumor cells (4T1 cells) or endothelial cells (HUVECs) are seeded on the upper chamber of a transwell insert. Growth factor-containing serum is added to the lower chamber.
Chamber Cell Migration Assay (Tables 4 and 6): Cell migrations were assayed with Boyden chambers [8.0 μm pore size, polyethylene terephthalate membrane, FALCON cell culture insert (Becton-Dickinson)]. 4T1 mouse breast tumor cells or HUVECs were trypsinized and counted. 300 μl of 5-10×10^4 cells in serum-free medium was added to the upper chamber and 500 μl of medium with 10% fetal bovine serum (FBS) was added to the lower chamber. […] Cells on the inside of the transwell inserts were removed with a cotton swab, and cells on the underside of the insert were fixed and stained. Photographs of three random regions were taken and the number of cells was counted to calculate the average number of cells that have transmigrated.

[3] = tested on: adherent cells (e.g. KYSE-520 cells); assay: Wound healing (scratch) assay (preliminary, Table 2); type: cell-based; details: 28 to 30 h, compared to 100 μM Migrastatin, tested 200, 100, 50, 25, 10 μM
Method: 2. Wound Healing Assay (Table 2)
The wound healing assay was performed based on the method described by Nakae et al. (Nakae et al., J. Antibiotics (2000), 53, 1130-1136). Briefly, adherent cells were grown in a suitable media to confluence (e.g. KYSE-520 cells in RPMI-1640 with 10% FBS). Cells were starved for 24 h in serum free media. A scratch (ca. 0.5 mm) was applied and the cell layer was washed twice with PBS after removal of the media. Fresh, serum free media with the test compound at the desired concentration was added and the cells were incubated for 28 to 30 h at 37° C., 5% CO2. The scratch size was compared to that observed for cells exposed to 100 μM Migrastatin. Test compounds associated with a scratch size equal to or larger than that observed for cells exposed to 100 μM Migrastatin were deemed to have cell migration inhibitory activity at least equal to Migrastatin.

HUVEC = assay: Tube formation assay (preliminary, Table 1); type: cell-based, human; details: minimal concentration causing definite disturbance of tube network, 16-18 h, tested 200, 100, 50, 25, 10 μM
Method: 1. Tube Formation Assay (Table 1):
A protocol was designed based on the instructions from the provider (BD Bioscience, San Jose, Calif.). Briefly, wells of a 48 well culture dish were covert with 150 μL matrigel and the matrigel was gelatinized for 30 min at 37° C. A 80-90% confluent HUVEC (BD Bioscience, San Jose, Calif.) culture was trypsin treated, the detached cells were collected by centrifugation and resuspended in EGM-2 media (BD Bioscience, San Jose, Calif.). Cell concentration was adjusted to 100.000 cells/mL. 400 μL of the cell suspension were filled in the matrigel coated wells, and a solution of the inhibitor was added to the intended final concentration. The plates were incubated at 37° C. with 5% CO2 for 16-18 h. Media was removed, and the matrigel surface was washed twice with 500 μL PBS before cells were labeled with 250 μL 8 μM Calcein AM (Pierce, Rockford, Ill.) in PBS for 30 min at 37° C. After two additional washing steps (500 μL PBS) cells were visualized under an inverted microscope. Fluorescence was excited at 488 nm and recorded at 538 nm. The minimum effect concentration was defined as the minimal inhibitor concentration that caused a definite disturbance of the complexity of the formed tube network.

[4] = tested on: 4T1 tumor lung metastasis; assay: 4T1 tumor lung metastasis in syngeneic mice (6-thioguanine clonogenic assay); type: in vivo, BALB/c mice; details: for lung metastasis colonies: lungs Day 28, mean and standard deviation
Description: Inhibition of metastasis of mouse breast tumors by migrastatin alogs in mice. 4T1 mouse breast tumor cell line was isolated from a single spontaneously arising mammary tumor from a BALB/BfC3H mouse (MMTV+).^62 The 4T1 tumor closely mimics human breast cancer in its anatomical site, immunogenecity, growth characteristics, and metastatic properties.^63 From the mammary gland, 4T1 tumor spontaneously metastasizes to a variety of target organs including the lung, bone, brain, and liver through primarily a hematogenous rout.^64
To assess the efficacy of therapeutic application of migrastatin analogs in the 4T1 murine mammary carcinoma models, we administered migrastatin analogs (macroketone and macrolactam) to BALB/c mice carrying the 4T1 tumors.
Female BALB/c mice (6-8 week old) were purchased from the Jackson Laboratory (Bar Harbor, Me.). All mice were housed at the Weill Medical College of Cornell University Animal Facilities in accordance with the Principles of Animal Care (NIH publication no. 85-23, revised 1985). 4T1 tumor cells (1×10^5) were injected subcutaneously into the abdominal mammary gland area of mice in 0.1 ml of a single-cell suspension in phosphate buffered saline (PBS) on Day 0. The dosage of tumor implantation was empirically determined to give rise to tumor of ˜10 mm in diameter in untreated wild type mice in 21-23 days. On Day 7, when the tumors averaged in size ˜4-5 mm in diameter, migrastatin analogs or control PBS saline were given every day by intraperitoneal injection at 10 mg/kg or 20 mg/kg per mouse until Day 25. On Day 28, the mice were sacrificed. This regiment of migrastatin analogs was well tolerated with no signs of overt toxicity. Every group included five mice. Primary tumors were measured using electronic calipers on the day when the mice were sacrificed. Tumor size was the square root of the product of two perpendicular diameters. Numbers of metastatic 4T1 cells in lung were determined by the clonogenic assay.^63 In brief, lungs were removed from each mouse on Day 28, finely minced and digested in 5 ml of enzyme cocktail containing 1× PBS and 1 mg/ml collagenase type IV for 2 hours at 37° C. on a platform rocker. After incubation, samples were filtered through 70 uM nylon cell strainers and washed twice with PBS. Resulting cells were suspended and plated serially diluted in 10 cm tissue culture dishes in medium RPMI1640 containing 60 uM thioguanine for clonogenic growth. 6-Thioguanine-resistant tumor cells formed foci after 14 days, at which time they were fixed with methanol and stained with 0.03% methylene blue for counting.
Treatment 4T1 tumor lung metaotmis in smgencie mice with Kigrastatin analogs (See, FIG. 4). 4T1 tumor cells (10^5) were injected s.c. in the abdominal mammary gland with 0.1 ml of a single-cell suspension. Macroketone or macrolactam at 10 mg/kg or 20 mg/kg was given i.p. on Day 7 when the tumor size was about 5 mm in diameter, and everyday until Day 25. On Day 28, the mice were sacrificed. Each group comprised five mice. Lung metastasis was measured by the 6-thiogunine clonogenic assay. The mean and standard deviation are presented. In the control group (daily PBS injection), there were 61300±18900 colonies.

[5] = tested on: HUVECs (human umbilical vein endothelial cells); assay: Boyden chamber cell migration assay with HUVECs; type: cell-based; details: chamber cell migration; average of three experiments; read-out: IC50 (HUVEC)
Method: Chamber Cell Migration Assay (Tables 4 and 6): Cell migrations were assayed with Boyden chambers [8.0 μm pore size, polyethylene terephthalate membrane, FALCON cell culture insert (Becton-Dickinson)]. 4T1 mouse breast tumor cells or HUVECs were trypsinized and counted. 300 μl of 5-10×10^4 cells in serum-free medium was added to the upper chamber and 500 μl of medium with 10% fetal bovine serum (FBS) was added to the lower chamber. The transwells were incubated for 6-8 h at 37° C. with different concentrations of chemical compound in both upper and lower chamber. Cells on the inside of the transwell inserts were removed with a cotton swab, and cells on the underside of the insert were fixed and stained. Photographs of three random regions were taken and the number of cells was counted to calculate the average number of cells that have transmigrated.

[6] = Mouse plasma stability study (HPLC); type: in vitro ADME
Method: Mouse Plasma Stability Studies (Table 5): HPLC conditions: The sample is injected and separated using an Inertsil ODS3 6u 3×150 mm column with a mobile phase of MeCN and water (50% for migrastatin) at a flow of 0.4 mL/min, monitored at 220 nm at 0.02 AUFS (the retention time for migrastatin is ca. 4 min, the identity of this peak was confirmed by mass spectral analysis). Incubation and sample preparation conditions: A solution (ca. 30 mM) of chemical compound (Table 5) in DMSO is prepared. 2 μL of the solution is added to a mixture containing 200 μL of mouse plasma and 800 μL of PBS. The resulting solution is put into a water bath at 37° C., and 100 μL of sample is withdrawn at 10, 20, 30, 45, and 60 min. The precipitate is removed by centrifugation and 20 μL of the supernatant is injected onto the HPLC.

CO[C@H]1C=CCCCCC(=O)O[C@H]([C@H](C)C(=O)CCCC2CC(=O)NC(=O)C2)/C(C)=C\[C@@H](C)[C@@H]1O[Si](C)(C)C(C)(C)C
ring closure, yield of all isomers ([1]; from C=CCCCCC(=O)O[C@@H](/C(C)=C\[C@@H](C)[C@H](O[Si](C)(C)C(C)(C)C)[C@H](C=C)OC)[C@H](C)C(=O)CCCC1CC(=O)NC(=O)C1, 0.48 mM): 79%

CO[C@H]1C=CCCCCC(=O)NC/C(C)=C\[C@@H](C)[C@@H]1O[Si](C)(C)C(C)(C)C
ring closure, yield of all isomers ([1]; from C=CCCCCC(=O)NC/C(C)=C\[C@@H](C)[C@H](O[Si](C)(C)C(C)(C)C)[C@H](C=C)OC, 0.709 mM): 60%

CO[C@H]1/C=C/CCCCC(=NO)CC/C(C)=C\[C@@H](C)[C@@H]1O [macrooxime (72), Macrooxime]
pIC50 [2]: 5.64

CO[C@H]1/C=C/CCCCC(C)(O)CC/C(C)=C\[C@@H](C)[C@@H]1O (some centres unmarked) [macrocyclic tertiary alcohol (70), Marocyclic Tertiary Alcohol]
pIC50 [2]: 5.51

CN1c2ccccc2C(=O)N2CCc3c([nH]c4ccccc34)[C@H]21 [evodiamine, reference compound]
pIC50 ([2]; Mus musculus): 6.50

CO[C@H]1/C=C/CCCCC(O)CC/C(C)=C\[C@@H](C)[C@@H]1O (some centres unmarked) [macrocyclic secondary alcohol (69), Macrocyclic Secondary Alcohol]
pIC50 [2]: 5.05

CO[C@H]1/C=C/CCCCC(=O)OC/C(C)=C\[C@@H](C)[C@@H]1OC(C)=O [acetylated macrolactone (49), Acetylated Macrolactone]
pIC50 [2]: 6.72

N-Methyl-migrastatin
Minimum effect concentration [3]: 100 µM | Minimum effect concentration (HUVEC): 200 µM

COC1C=CCCCCC(=O)NCC(C)=CC(C)C1O (centres unmarked) [macrolactam (55), Macrolactam]
inhibition of lung metastasis ([4]; 10 mg/kg i.p. daily Day 7-25): ~91% | lung metastasis colonies ([4]; 10 mg/kg i.p. daily Day 7-25): 5333±1778 colonies | inhibition of lung metastasis ([4]; 20 mg/kg i.p. daily Day 7-25): ~91% | lung metastasis colonies ([4]; 20 mg/kg i.p. daily Day 7-25): 5675±6263 colonies | pIC50 [5]: 4.74 | pIC50 [2]: 6.59

CO[C@H]1/C=C/CCCCC(O)(C(F)(F)F)CC/C(C)=C\[C@@H](C)[C@@H]1O (some centres unmarked) [macrocyclic CF3-alcohol (71), Macrocyclic CF3-Alcohol]
effect on 4T1 tumor cell migration in the chamber assay, in words ([2]; chamber assay): displays the same activity profile as macroketone 60 | pIC50 [2]: 7.00

CO[C@@H](/C=C/CCCCC(=O)O)[C@@H](O)[C@H](C)/C=C(/C)CO [hydrolyzed core (51), Hydrolyzed Core]
pIC50 [2]: 6.42

COC1C=CCCC=CC(=O)OCC(C)=CC(C)C1O (centres unmarked) [migrastatin core (45), Migrastatin Core]
stability (t1/2, mouse plasma) ([6]; mouse plasma/PBS, 37° C., sampled up to 60 min): 20 min | stability (mouse plasma), in words ([6]; stable = intensity of HPLC signal unchanged over 60 min of incubation): hydrolyzed rapidly | pIC50 [5]: 6.82

COC1C=CCCCCC(=O)OC(C(C)C(=O)CCCC2CC(=O)NC(=O)C2)C(C)=CC(C)C1O (centres unmarked) [2,3-dihydromigrastatin (41), 2,3-Dihydromigrastatin]
Minimum effect concentration [3]: 25 µM | Minimum effect concentration (HUVEC): 50 µM | pIC50 [2]: 5.00

CO[C@H]1C=CCC/C=C/C(=O)O[C@H]([C@H](C)C(=O)CCCC2CC(=O)NC(=O)C2)/C(C)=C\[C@@H](C)[C@@H]1O[Si](C)(C)C(C)(C)C
ring closure, yield of all isomers ([1]; from C=CCC/C=C/C(=O)O[C@@H](/C(C)=C\[C@@H](C)[C@H](O[Si](C)(C)C(C)(C)C)[C@H](C=C)OC)[C@H](C)C(=O)CCCC1CC(=O)NC(=O)C1, 0.46 mM): 69%

N-Methyl-2,3-Dihydromigrastatin [N-methyl-2,3-dihydromigrastatin (42)]
pIC50 [2]: 5.15
